Results: patent US9138436B2, “Inhibitors of Bruton's tyrosine kinase” (PHARMACYCLICS LLC, priority 2011, dated 2015)

Molecular target: Btk (Homo sapiens, UniProt Q06187)
Experiment: Btk in vitro inhibitory activity, acellular kinase assay (TR-FRET)
Format: biochemical
Method: Btk kinase activity is determined using a time-resolved fluorescence resonance energy transfer (TR-FRET) methodology. Measurements are performed in a reaction volume of 50 μL using 96-well assay plates. Kinase enzyme, inhibitor, ATP (at the Km for the kinase), and 1 μM peptide substrate (Biotin-AVLESEEELYSSARQ-NH2) are incubated in a reaction buffer composed of 20 mM Tris, 50 mM NaCl, MgCl2 (5-25 mM depending on the kinase), MnCl2 (0-10 mM), 1 mM DTT, 0.1 mM EDTA, 0.01% bovine serum albumin, 0.005% Tween-20, and 10% DMSO at pH 7.4 for one hour. The reaction is quenched by the addition of 1.2 equivalents of EDTA (relative to divalent cation) in 25 μL of 1× Lance buffer (Perkin-Elmer). Streptavidin-APC (Perkin-Elmer) and Eu-labeled p-Tyr100 antibody (Perkin-Elmer) in 1× Lance buffer are added in a 25 μL volume to give final concentrations of 100 nM and 2.5 nM, respectively, and the mixture is allowed to incubate for one hour. The TR-FRET signal is measured on a multimode plate reader with an excitation wavelength (λEx) of 330 nm and detection wavelengths (λEm) of 615 and 665 nm. Activity is determined by the ratio of the fluorescence at 665 nm to that at 615 nm. For each compound, enzyme activity is measured at various concentrations of compound. Negative control reactions are performed in the absence of inhibitor in replicates of six, and two no-enzyme controls were used to determine baseline fluorescence levels. Inhibition constants, Ki(app), are obtained using the program BatchKi (Kuzmic et al. (2000), Anal. Biochem. 286:45-50). IC50s are obtained according to the equation: IC50={Ki(app)/(1+[ATP]/Km^ATP)}+[E]total/2;
For all kinases, [ATP]=Km^ATP, [Btk]total=0.5 nM and [Lck]total=6 nM.

Btk, sequence (Q06187 whole entry): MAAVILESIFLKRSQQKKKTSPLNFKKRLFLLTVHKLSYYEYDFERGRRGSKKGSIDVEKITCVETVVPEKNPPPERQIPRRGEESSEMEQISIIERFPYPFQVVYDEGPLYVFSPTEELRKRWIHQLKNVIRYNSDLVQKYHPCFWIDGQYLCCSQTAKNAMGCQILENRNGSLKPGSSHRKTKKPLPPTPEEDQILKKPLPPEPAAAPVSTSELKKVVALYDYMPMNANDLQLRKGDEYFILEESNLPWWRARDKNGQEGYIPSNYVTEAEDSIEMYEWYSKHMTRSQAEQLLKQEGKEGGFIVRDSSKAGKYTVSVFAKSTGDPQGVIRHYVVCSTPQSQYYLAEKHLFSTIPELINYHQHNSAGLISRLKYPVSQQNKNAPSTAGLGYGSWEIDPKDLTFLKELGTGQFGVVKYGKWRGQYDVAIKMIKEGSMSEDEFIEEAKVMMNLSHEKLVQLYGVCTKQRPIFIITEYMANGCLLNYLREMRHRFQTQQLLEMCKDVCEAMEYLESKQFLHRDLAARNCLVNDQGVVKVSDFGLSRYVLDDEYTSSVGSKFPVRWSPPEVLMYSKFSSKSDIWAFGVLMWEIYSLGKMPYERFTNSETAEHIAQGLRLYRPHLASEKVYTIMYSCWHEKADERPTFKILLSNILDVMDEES

**Q.** For CCN(C/C=C/C(=O)N1CC[C@@H](n2nc(-c3ccc(Oc4ccccc4)cc3)c3c(N)ncnc32)C1)C1CC1 [Example 2v, (R,E)-1-(3-(4-amino-3-(4-phenoxyphenyl)-1H-pyrazolo[3,4-d]pyrimidin-1-yl)pyrrolidin-1-yl)-4-(cyclopropyl(ethyl)amino)but-2-en-1-one], which IC50 is on record?
**A.** The IC50 was less than 100 nM.

**Q.** How did the IC50 turn out when CN(C(=O)/C=C/CN(C)C1CCC1)c1cccc(-n2nc(-c3ccc(Oc4ccccc4)cc3)c3c(N)ncnc32)c1 [Example 7e, (E)-N-(3-(4-amino-3-(4-phenoxyphenyl)-1H-pyrazolo[3,4-d]pyrimidin-1-yl)phenyl)-4-(cyclobutyl(methyl)amino)-N-methylbut-2-enamide] was run?
**A.** Its IC50 is less than 100 nM.

**Q.** How did the IC50 turn out when CN1CCC(N(C)C/C=C/C(=O)N2CCC[C@@H](n3nc(-c4ccc(Oc5ccccc5)cc4)c4c(N)ncnc43)C2)CC1 [Example 2an, (R,E)-1-(3-(4-amino-3-(4-phenoxyphenyl)-1H-pyrazolo[3,4-d]pyrimidin-1-yl)piperidin-1-yl)-4-(methyl(1-methylpiperidin-4-yl)amino)but-2-en-1-one] was run?
**A.** Its IC50 is less than 100 nM.

**Q.** COCCN(C/C=C/C(=O)N1CC[C@@H](n2nc(-c3ccc(Oc4ccccc4)cc3)c3c(N)ncnc32)C1)C1CC1 [Example 2p, (R,E)-1-(3-(4-amino-3-(4-phenoxyphenyl)-1H-pyrazolo[3,4-d]pyrimidin-1-yl)pyrrolidin-1-yl)-4-(cyclopropyl(2-methoxyethyl)amino)but-2-en-1-one] was tested. Which IC50 did it give?
**A.** The IC50 was less than 100 nM.

**Q.** Which IC50 does the source give for CC(C)N(C/C=C/C(=O)N1CC[C@@H](n2nc(-c3ccc(Oc4ccccc4)cc3)c3c(N)ncnc32)C1)C1CCC1 [Example 2aq, (R,E)-1-(3-(4-amino-3-(4-phenoxyphenyl)-1H-pyrazolo[3,4-d]pyrimidin-1-yl)pyrrolidin-1-yl)-4-(cyclobutyl(isopropyl)amino)but-2-en-1-one] here?
**A.** The IC50 was less than 100 nM.

**Q.** For CN(C/C=C/C(=O)N1CC[C@@H](n2nc(-c3ccc(Oc4cccc(F)c4)cc3)c3c(N)ncnc32)C1)C1CC1 [Example 4c, (R,E)-1-(3-(4-amino-3-(4-(3-fluorophenoxy)phenyl)-1H-pyrazolo[3,4-d]pyrimidin-1-yl)pyrrolidin-1-yl)-4-(cyclopropyl(methyl)amino)but-2-en-1-one], which IC50 is on record?
**A.** Its IC50 is less than 100 nM.

**Q.** How did the IC50 turn out when CN(C(=O)/C=C/CN(C)C1CCC1)c1ccc(-n2nc(-c3ccc(Oc4ccccc4)cc3)c3c(N)ncnc32)cc1 [Example 7c, (E)-N-(4-(4-amino-3-(4-phenoxyphenyl)-1H-pyrazolo[3,4-d]pyrimidin-1-yl)phenyl)-4-(cyclobutyl(methyl)amino)-N-methylbut-2-enamide] was run?
**A.** The IC50 was less than 100 nM.

**Q.** With CN(C/C=C/C(=O)Nc1cccc(-n2nc(-c3ccc(Oc4ccccc4)cc3)c3c(N)ncnc32)c1)C1CCC1 [Example 7g, (E)-N-(3-(4-amino-3-(4-phenoxyphenyl)-1H-pyrazolo[3,4-d]pyrimidin-1-yl)phenyl)-4-(cyclobutyl(methyl)amino)but-2-enamide] as the molecule, how does the IC50 read?
**A.** The IC50 was less than 100 nM.

**Q.** How did the IC50 turn out when CN(C/C=C/C(=O)N1CC[C@@H](n2nc(-c3ccc(Oc4cccc(F)c4)cc3)c3c(N)ncnc32)C1)C1CCC1 [Example 4b, (R,E)-1-(3-(4-amino-3-(4-(3-fluorophenoxy)phenyl)-1H-pyrazolo[3,4-d]pyrimidin-1-yl)pyrrolidin-1-yl)-4-(cyclobutyl(methyl)amino)but-2-en-1-one] was run?
**A.** The IC50 was less than 100 nM.

**Q.** Nc1ncnc2c1c(-c1ccc(Oc3ccccc3)cc1)nn2[C@@H]1CCCN(C(=O)/C=C/CNC2CCC2)C1 [Example 2am, (R,E)-1-(3-(4-amino-3-(4-phenoxyphenyl)-1H-pyrazolo[3,4-d]pyrimidin-1-yl)piperidin-1-yl)-4-(cyclobutylamino)but-2-en-1-one] was tested. Which IC50 did it give?
**A.** Its IC50 is less than 100 nM.

**Q.** Which IC50 does the source give for CN(C/C=C/C(=O)N1CC[C@@H](n2nc(-c3ccc(Oc4ccccc4)cc3)c3c(N)ncnc32)C1)C1COC1 [Example 2f, (R,E)-1-(3-(4-amino-3-(4-phenoxyphenyl)-1H-pyrazolo[3,4-d]pyrimidin-1-yl)pyrrolidin-1-yl)-4-(methyl(oxetan-3-yl)amino)but-2-en-1-one] here?
**A.** The IC50 was less than 100 nM.
